Values of other authors, collected in patent publication US10149395B2, “Water-based organic solderability preservative, and electronic board and surface treatment method using the same” (TAMURA CORPORATION, priority 2016, dated 2018).

Details: at 20 degrees C.

| Structure (SMILES) | solubility to water |
| --- | --- |
| COC(C)COC(C)COC(C)CO (stereo not shown) [Organic solvent A, tripropylene glycol monomethyl ether] | miscible in all proportions |
| OCCOc1ccccc1 [Organic solvent G, phenyl glycol] | 2.7 g/100 g |
| CCCCOCC(C)OCC(C)OCC(C)O (stereo not shown) [Organic solvent H, butylpropylene triglycol] | 0.4 g/100 g |
| CCCCOCCOCCOCCCC [Organic solvent I, diethylene glycol dibutylether] | 0.3 g/100 g |
| COCCOCCOCCOCCOC [Organic solvent D, tetraethylene glycol dimethyl ether] | miscible in all proportions |
| OCC1CCCO1 (stereo not shown) [Organic solvent E, tetrahydrofurfuryl alcohol] | miscible in all proportions |
| CCO [Organic solvent J, ethyl alcohol] | miscible in all proportions |

Further lines, results first:

| solubility to water | Structure (SMILES) |
| --- | --- |
| miscible in all proportions | COCC(C)O (stereo not shown) [Organic solvent C, propylene glycol monomethyl ether] |
| miscible in all proportions | CC(C)O [Organic solvent K, isopropyl alcohol] |
| 18.5 g/100 g | COCC(C)OC(C)=O (stereo not shown) [Organic solvent F, propylene glycol monomethyl ether acetate] |
